Each compound was assayed on peach aphid (Myzus persicae) (assay: Insecticidal test against peach aphid, infested Chinese cabbage leaves sprayed). Conditions: peach aphid (Myzus persicae) on Chinese cabbage leaves, sprayed with 500 ppm composition unless otherwise stated, mortality assessed after 3 days.
Assay type: in vivo
Procedure, shortened: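 Aphid-infested Chinese cabbage leaves were sprayed with compound at 500 ppm unless otherwise stated, formulated in acetone/ethanol diluted with water containing 0.05% Synperonic NP8. Mortality was assessed after 3 days.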

SMILES | Score (grading of mortality)
CN1C2CCC1CC(C#N)(c1cncc(N)c1)C2 (stereo not drawn) [Compound 134, exo-3-(5-aminopyrid-3-yl)-endo-3-cyano-8-methyl-8-azabicyclo[3.2.1]octane] | A (A indicates 80-100% mortality)
N#CC1(c2cncc(Cl)c2)CC2CCC(C1)N2C(C(N)=O)c1ccccc1 (stereo not drawn) [Compound 135, exo-3-(5-chloropyrid-3-yl)-endo-3-cyano-8-(a-carbamylbenzyl)-8-azabicyclo[3.2.1]octane] | A (A indicates 80-100% mortality)
N#CC1(c2cncc(Cl)c2)CC2CCC(C1)N2c1cccc(C(F)(F)F)n1 (stereo not shown) [Compound 136] | C (C indicates less than 40% mortality)
N#CC1(c2cncc(Cl)c2)CC2CCC(C1)N2c1cccc(Cl)n1 (stereo not shown) [Compound 137] | C (C indicates less than 40% mortality)
N#CC1(c2cncc(Cl)c2)CC2CCC(C1)N2C(=S)S (stereo not drawn) [Compound 138, exo-3-(5-chloropyrid-3-yl)-endo-3-cyano-8-(mercaptothiocarbonyl)-8-azabicyclo[3.2.1]octane] | A (A indicates 80-100% mortality)
CC(C)(C)N1C2CCC1CC(C#N)(c1cncc(Cl)c1)C2 (stereo not drawn) [Compound 139, exo-3-(5-chloropyrid-3-yl)-endo-3-cyano-8-(tert-butyl)-8-azabicyclo[3.2.1]octane] | A (A indicates 80-100% mortality)
CCOC(=O)CCN1C2CCC1CC(C#N)(c1cncc(Cl)c1)C2 (stereo not drawn) [Compound 140, exo-3-(5-chloropyrid-3-yl)-endo-3-cyano-8-(2-(ethoxycarbonyl)ethyl)-8-azabicyclo[3.2.1]octane] | A (A indicates 80-100% mortality)
N#CC1(c2cncc(Cl)c2)CC2CCC(C1)N2CCC(=O)O (stereo not drawn) [Compound 141, exo-3-(5-chloropyrid-3-yl)-endo-3-cyano-8-(2-carboxyethyl)-8-azabicyclo[3.2.1]octane] | A (A indicates 80-100% mortality)
N#CC1(c2cncc(Cl)c2)CC2CCC(C1)N2CC(F)F (stereo not drawn) [Compound 142, exo-3-(5-chloropyrid-3-yl)-endo-3-cyano-8-(2,2-difluoroethyl)-8-azabicyclo[3.2.1]octane] | A (A indicates 80-100% mortality)
N#CC1(c2cncc(Br)c2)CC2CCC(C1)N2CC(F)(F)F (stereo not shown) [Compound 143] | A (A indicates 80-100% mortality)
N#CC1(c2cncc(Cl)c2)CC2CCC(C1)N2C(=O)F (stereo not drawn) [Compound 144, exo-3-(5-chloropyrid-3-yl)-endo-3-cyano-8-(fluorocarbonyl)-8-azabicyclo[3.2.1]octane] | A (A indicates 80-100% mortality)
CN(C(=O)N1C2CCC1CC(C#N)(c1cncc(Cl)c1)C2)c1ccccc1 (stereo not shown) [Compound 145] | A (A indicates 80-100% mortality)
CC(C)(C)NC(=O)N1C2CCC1CC(C#N)(c1cncc(Cl)c1)C2 (stereo not drawn) [Compound 146, exo-3-(5-chloropyrid-3-yl)-endo-3-cyano-8-(tert-butylcarbamyl)-8-azabicyclo[3.2.1]octane] | A (A indicates 80-100% mortality)
CN1C2CCC1CC(C#N)(c1cncc(I)c1)C2 (stereo not drawn) [Compound 147, exo-3-(5-iodopyrid-3-yl)-endo-3-cyano-8-methyl-8-azabicyclo[3.2.1]octane] | A (A indicates 80-100% mortality)
CN1C2CCC1CC(C#N)(c1cncc(O)c1)C2 (stereo not drawn) [Compound 148, exo-3-(5-hydroxypyrid-3-yl)-endo-3-cyano-8-methyl-8-azabicyclo[3.2.1]octane] | B (B indicates 40-79% mortality)
N#CC1(c2cncc(Cl)c2)CC2CCC(C1)N2C(=O)N1CCOCC1 (stereo not shown) [Compound 149] | A (A indicates 80-100% mortality)

— patent US6573275B1, “Bicyclic amines” (Syngenta Limited, priority 1995, dated 2003)
